Data taken from patent US10407409B2, “6-(5-hydroxy-1H-pyrazol-1-yl)nicotinamide inhibitors of PHD” (Takeda Pharmaceutical Company Limited, priority 2013, dated 2019).

Experiments:
[1] = biological target: PHD2 enzyme (residues 181-417) (Homo sapiens (Human), UniProt Q9GZT9); test: Inhibition of PHD enzyme (LC/MS peptide hydroxylation assay); type: biochemical; details: PHD2 (residues 181-417) 5 nM, 60 min pre-incubation; -log(IC50), IC50 molar
Method in brief: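 PHD2 (5 nM final) preincubated with inhibitor 60 min at RT in 50 mM HEPES, 50 mM KCl, 0.5 mM TCEP, 2 uM FeCl2, 0.1 mg/ml BSA, pH 7.3. Reaction started with biotin-peptide (1 uM), 2-oxoglutarate (2 uM), ascorbate (1 mM), quenched at 60 min; hydroxylated product by LC/MS, reported as pIC50.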

[2] = test system: HIF1a protein in H9c2 rat cardiomyocytes; test: Cell-based HIF-alpha stabilization assay (inhibition of PHD in cells); details: 24 hrs compound incubation, HIF1a protein by ELISA; for EC50: Rattus norvegicus, H9c2, 24 h, read-out: Inhibition of PHD in cells (pEC50) (converted)
Method in brief: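 Rat H9c2 cardiomyocytes, cultured 24 h, were treated 24 h with an 11-point serial dilution of compound. HIF1a in whole-cell lysates was quantified by ELISA as % of the maximal desferrioxamine response. EC50 came from curve fitting; EC50pos is the concentration reaching 50% of the desferrioxamine maximum.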

Sequence of PHD2 enzyme (residues 181-417) (Q9GZT9 181-417): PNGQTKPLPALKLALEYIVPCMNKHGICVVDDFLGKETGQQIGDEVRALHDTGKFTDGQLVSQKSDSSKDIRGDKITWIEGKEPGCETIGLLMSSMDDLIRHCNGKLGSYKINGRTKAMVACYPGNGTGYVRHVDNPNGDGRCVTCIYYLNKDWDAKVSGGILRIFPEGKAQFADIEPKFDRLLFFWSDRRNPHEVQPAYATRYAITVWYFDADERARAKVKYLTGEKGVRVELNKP

Compound | PHD Inhibition (pIC50) [1] | EC50 [2] [µM] | Inhibition of PHD in cells (pEC50) [2]
COCC(C)CNC(=O)c1ccc(-n2ncc(-c3ccc(C#N)cc3)c2O)nc1 (stereo not drawn) [Example 146, 6-(4-(4-cyanophenyl)-5-hydroxy-1H-pyrazol-1-yl)-N-(3-methoxy-2-methylpropyl)nicotinamide] | 8.3 | 0.692 | 
COc1cc(-c2cnn(-c3ccc(C(=O)N[C@@H](C)C4CCOCC4)cn3)c2O)ccn1 [Example 16, (S)-6-(5-hydroxy-4-(2-methoxypyridin-4-yl)-1H-pyrazol-1-yl)-N-(1-(tetrahydro-2H-pyran-4-yl)ethyl)nicotinamide] | 7.38 | 0.2 | 
CCN1CCN(C(=O)c2ccc(-n3ncc(-c4ccc(C#N)c(F)c4C)c3O)nc2)C[C@H]1C [Example 338, (R)-4-(1-(5-(4-ethyl-3-methylpiperazine-1-carbonyl)pyridin-2-yl)-5-hydroxy-1H-pyrazol-4-yl)-2-fluoro-3-methylbenzonitrile] | 8.40 | 0.933 | 
CNCCCNC(=O)c1ccc(-n2ncc(-c3ccnc(OC)c3)c2O)nc1 [Example 42, 6-(5-hydroxy-4-(2-methoxypyridin-4-yl)-1H-pyrazol-1-yl)-N-(3-(methylamino)propyl)nicotinamide] | 7.5 | 3.39 | 
Cc1c(-c2cnn(-c3ccc(C(=O)N4CCN(C)CC4)cn3)c2O)ccc(C#N)c1F [Example 322, 2-fluoro-4-(5-hydroxy-1-(5-(4-methylpiperazine-1-carbonyl)pyridin-2-yl)-1H-pyrazol-4-yl)-3-methylbenzonitrile] | 8.26 | 0.933 | 
Cc1cc(C#N)ccc1-c1cnn(-c2ccc(C(=O)N3CCCC(N(C)C4CC4)C3)cn2)c1O (stereo in doubt) [Example 386, (S)-4-(1-(5-(3-(cyclopropyl(methyl)amino)piperidine-1-carbonyl)pyridin-2-yl)-5-hydroxy-1H-pyrazol-4-yl)-3-methylbenzonitrile] | 8.23 |  | 6.15
Cc1cc(C#N)c(F)cc1-c1cnn(-c2ccc(C(=O)N3CCN(C)[C@H](C)C3)cn2)c1O [Example 401, (R)-4-(1-(5-(3,4-dimethylpiperazine-1-carbonyl)pyridin-2-yl)-5-hydroxy-1H-pyrazol-4-yl)-2-fluoro-5-methylbenzonitrile] | 8.44 | 1.58 | 
Cc1cc(-n2ncc(-c3ccc(C#N)cc3)c2O)ncc1C(=O)N1CCN(C)CC1 [Example 430, 4-(5-hydroxy-1-(4-methyl-5-(4-methylpiperazine-1-carbonyl)pyridin-2-yl)-1H-pyrazol-4-yl)benzonitrile] | 7.44 | 8.51 | 
CCN1CCCC1CN(C)C(=O)c1ccc(-n2ncc(-c3ccc(C#N)cc3)c2O)nc1 (stereo not drawn) [Example 363, 6-(4-(4-cyanophenyl)-5-hydroxy-1H-pyrazol-1-yl)-N-((1-ethylpyrrolidin-2-yl)methyl)-N-methylnicotinamide] | 7.28 | 2.09 | 
COc1cc(-c2cnn(-c3ccc(C(=O)N[C@H]4CC[C@@H](C)CC4)cn3)c2O)ccn1 [Example 52, 6-(5-hydroxy-4-(2-methoxypyridin-4-yl)-1H-pyrazol-1-yl)-N-((1s,4s)-4-methylcyclohexyl)nicotinamide] | 8.3 | 0.933 | 
O=C(NCC1CCOCC1)c1ccc(-n2ncc(-n3ccc(=O)cc3)c2O)nc1 [Example 190, 6-(5-hydroxy-4-(4-oxopyridin-1(4H)-yl)-1H-pyrazol-1-yl)-N-((tetrahydro-2H-pyran-4-yl)methyl)nicotinamide] | 7 | 15.8 | 
COCCC1(NC(=O)c2ccc(-n3ncc(-c4ccnc(OC)c4)c3O)nc2)CC1 [Example 209, 6-(5-hydroxy-4-(2-methoxypyridin-4-yl)-1H-pyrazol-1-yl)-N-(1-(2-methoxyethyl)cyclopropyl)nicotinamide] | 6.98 | 0.398 | 
Cc1cc(C#N)ccc1-c1cnn(-c2ccc(C(=O)N3CCN(CC4CC4)CC3)cn2)c1O [Example 418, 4-(1-(5-(4-(cyclopropylmethyl)piperazine-1-carbonyl)pyridin-2-yl)-5-hydroxy-1H-pyrazol-4-yl)-3-methylbenzonitrile] | 8.17 | 1.17 | 
CCNC(=O)c1cnc(-n2ncc(-c3ccc(C#N)cc3)c2O)cc1C [Example 274, 6-(4-(4-cyanophenyl)-5-hydroxy-1H-pyrazol-1-yl)-N-ethyl-4-methylnicotinamide] | 7.03 | 6.46 | 

Now from value to molecule, other results behind:

PHD Inhibition (pIC50) [1] | Compound | EC50 [2] [µM] | Inhibition of PHD in cells (pEC50) [2]
7.8 | Cc1cc(C#N)ccc1-c1cnn(-c2ccc(C(=O)NC(C)(C)CN(C)C)cn2)c1O [Example 187, 6-(4-(4-cyano-2-methylphenyl)-5-hydroxy-1H-pyrazol-1-yl)-N-(1-(dimethylamino)-2-methylpropan-2-yl)nicotinamide] | 0.355 | 
7.19 | Cc1cc(C#N)ccc1-c1cnn(-c2ccc(C(=O)NC3(C)CC3)cn2)c1O [Example 61, 6-(4-(4-cyano-2-methylphenyl)-5-hydroxy-1H-pyrazol-1-yl)-N-(1-methylcyclopropyl)nicotinamide] | 0.0794 | 
7.24 | CCOCCNC(=O)c1ccc(-n2ncc(-c3ccc(C#N)cc3C)c2O)nc1 [Example 126, 6-(4-(4-cyano-2-methylphenyl)-5-hydroxy-1H-pyrazol-1-yl)-N-(2-ethoxyethyl)nicotinamide] | 0.38 | 
8.20 | CO[C@H](C)CCNC(=O)c1ccc(-n2ncc(-c3ccc(C#N)cc3C)c2O)nc1 [Example 371, (R)-6-(4-(4-cyano-2-methylphenyl)-5-hydroxy-1H-pyrazol-1-yl)-N-(3-methoxybutyl)nicotinamide] | 0.832 | 
8.67 | Cc1cc(C#N)ccc1-c1cnn(-c2ccc(C(=O)N(C)C)cn2)c1O [Example 301, 6-(4-(4-cyano-2-methylphenyl)-5-hydroxy-1H-pyrazol-1-yl)-N,N-dimethylnicotinamide] | 0.251 | 
7.9 | Cc1cc(C#N)ccc1-c1cnn(-c2ccc(C(=O)NCCCN(C)C)cn2)c1O [Example 95, 6-(4-(4-cyano-2-methylphenyl)-5-hydroxy-1H-pyrazol-1-yl)-N-(3-(dimethylamino)propyl)nicotinamide] | 0.0832 | 
7.44 | CO[C@H]1CC[C@H](NC(=O)c2ccc(-n3ncc(-c4ccc(C#N)cc4C)c3O)nc2)CC1 [Example 68, 6-(4-(4-cyano-2-methylphenyl)-5-hydroxy-1H-pyrazol-1-yl)-N-((1r,4r)-4-methoxycyclohexyl)nicotinamide] | 0.0501 | 
7.21 | Cc1cc(C#N)ccc1-c1cnn(-c2ccc(C(=O)NC3CCC3)cn2)c1O [Example 134, 6-(4-(4-cyano-2-methylphenyl)-5-hydroxy-1H-pyrazol-1-yl)-N-cyclobutylnicotinamide] | 0.339 | 
7.57 | COCCCNC(=O)c1ccc(-n2ncc(-c3ccc(C#N)cc3)c2O)nc1 [Example 148, 6-(4-(4-cyanophenyl)-5-hydroxy-1H-pyrazol-1-yl)-N-(3-methoxypropyl)nicotinamide] | 0.631 | 
8 | Cc1cc(C#N)ccc1-c1cnn(-c2ccc(C(=O)NCCCN3CCCCC3C)cn2)c1O (stereo not drawn) [Example 97, 6-(4-(4-cyano-2-methylphenyl)-5-hydroxy-1H-pyrazol-1-yl)-N-(3-(2-methylpiperidin-1-yl)propyl)nicotinamide] | 0.0562 | 
7.25 | Cc1cc(C#N)ccc1-c1cnn(-c2ccc(C(=O)N[C@H](C)C3CCOCC3)cn2)c1O [Example 63, (R)-6-(4-(4-cyano-2-methylphenyl)-5-hydroxy-1H-pyrazol-1-yl)-N-(1-(tetrahydro-2H-pyran-4-yl)ethyl)nicotinamide] | 0.158 | 
7.701 | CCC(CC)N1CCN(C(=O)c2ccc(-n3ncc(-c4ccc(C#N)cc4C)c3O)nc2)CC1 [Example 369, 4-(5-hydroxy-1-(5-(4-(pentan-3-yl)piperazine-1-carbonyl)pyridin-2-yl)-1H-pyrazol-4-yl)-3-methylbenzonitrile] | 1.2 | 
8.20 | CCN1CCN(C(=O)c2ccc(-n3ncc(-c4ccc(C#N)cc4C)c3O)nc2)[C@H](C)C1 [Example 434, (R)-4-(1-(5-(4-ethyl-2-methylpiperazine-1-carbonyl)pyridin-2-yl)-5-hydroxy-1H-pyrazol-4-yl)-3-methylbenzonitrile] | 1.29 | 
7.98 | Cc1cc(C#N)ccc1-c1cnn(-c2ccc(C(=O)N3CCC(CN(C)C)CC3)cn2)c1O [Example 419, 4-(1-(5-(4-((dimethylamino)methyl)piperidine-1-carbonyl)pyridin-2-yl)-5-hydroxy-1H-pyrazol-4-yl)-3-methylbenzonitrile] | 0.631 | 
7.17 | Cc1cc(C#N)ccc1-c1cnn(-c2ccc(C(=O)NCCCOCC3CC3)cn2)c1O [Example 70, 6-(4-(4-cyano-2-methylphenyl)-5-hydroxy-1H-pyrazol-1-yl)-N-(3-(cyclopropylmethoxy)propyl)nicotinamide] | 0.229 | 
8.4 | Cc1cc(C#N)ccc1-c1cnn(-c2ccc(C(=O)NC3CC4(COC4)C3)cn2)c1O [Example 244, 6-(4-(4-cyano-2-methylphenyl)-5-hydroxy-1H-pyrazol-1-yl)-N-(2-oxaspiro[3.3]heptan-6-yl)nicotinamide] | 0.24 | 
